Source: patent publication EP1762248A1, “Use of cobalt porphyrins in joint therapy with an immunosuppressant drug for treatment of transplant patients or autoimmune disorders” (CORIT Consorzio per la Ricerca sul, priority 2005, dated 2007)
Where two headings read alike, the source gives them in different places.

Assays:
HO-1 = conditions: paec, 72 h
Excerpt: Equal amounts of protein of each sample have been loaded and separated by electrophoresis on a 12% polyacrylamide gel in the presence of SDS (SDS-PAGE) and then transferred onto a nitrocellulose membrane (Amersham-Pharmacia) by means of electroblotting. […] The specific band has been detected by adding a chemiluminescent substrate followed by exposure to photographic film (ECL-Amersham-Pharmacia). The relative amount of HO-1 protein, normalised to the actin content of each sample, has been determined with the use of a densitometer (Pharmacia).
Following stimulation, HO-1 expression has been assessed by Western Blotting and densitometric analysis of the bands obtained. HO-1 expression is reported as the ratio of the intensity of the bands with respect to the control (table 1). The amount of protein loaded is normalised for actin.

PBMCs [1] = assay: Apoptosis analysis of simian PBMCs by PI staining (sub-diploid peak); format: cell-based, primate; conditions: CoPP alone; concanavalin A, 96 hours
Method: The pellet from each sample has been resuspended in 600 µl of PBS and subsequently, 1.4 ml of absolute ethanol has been added dropwise while shaking continuously. The samples have been left at -20°C overnight. Following fixation, the cells have been washed twice in PBS. The pellet has been resuspended in 500 µl of PI at a concentration of 50 µg/ml, to which 6.25 µl of Nonidet P40 and 8 µl of RNase A (1 mg/ml) have been added. The samples have been shaken vigorously and incubated for at least half an hour in the dark at room temperature. Following incubation, the samples have been analysed using a cytofluorimeter, for cell cycle analysis.
(§1) By means of staining with the DNA intercalator, PI, it has been possible to evaluate the apoptotic cells as a sub-diploid peak and the cells in the DNA synthesis and duplication stage (S+G2 stage) as peaks with a DNA content greater than or equal to the diploid content. The proliferation index of PBMCs has been evaluated by staining the cells with CFSE at the same time as stimulation.
In order to study apoptosis, the percentage of cells in the sub-diploid stage has been quantified.

PAEC cells = assay: Proliferation of PAEC cells by CFSE labelling and cytofluorometric analysis; format: cell-based, Pig; conditions: CoPP alone, various concentrations; versus untreated PAEC controls (figure 1)
Excerpt: Two in vitro experimental models have been used.
CFSE is a non-fluorescent dye which diffuses passively into the cell cytoplasm. Once inside the cytoplasm, the dye is cleaved by intracellular esterases, thus becoming fluorescent. This binds strongly to cellular proteins and is retained during cellular development. At each cell division stage, CFSE is distributed evenly to daughter cells, with the result that each cellular generation will inherit half of the CFSE content. When analysed by cytofluorimetry, the sequential reduction of CFSE is visualised as distinct peaks corresponding to ever more decreasing fluorescence. PAEC proliferation has been evaluated as a proliferation index, calculated as the sum of the cells in all generations divided by the number of original parental cells (e.g. in the second generation, the parental cells would correspond to the total number of cells in the second generation divided by 2, in the third, divided by 4, because each will have given rise to 2^1, 2^2 cells and so on for each generation).

PBMCs [2] = assay: Proliferation of concanavalin A activated simian PBMCs by CFSE labelling; format: cell-based, primate; conditions: CoPP alone (CsA concentration 0), 96 hours (figure 2)
Excerpt: as §1

cobalt (III) protoporphyrin [CoPP]
HO-1 expression in PAECs as the ratio of band intensity with respect to the control and normalised for actin (R) (HO-1; 50 µM): 6.0
HO-1 expression in PAECs as the ratio of band intensity with respect to the control and normalised for actin (R) (HO-1; 100 µM): 4.6
apoptosis (cells in the sub-diploid stage) (PBMCs [1]): up to 6%
proliferation index of PAECs (PAEC cells): increases the proliferation index in a dose dependent manner
concentration at which PBMC proliferation is inhibited (PBMCs [2]): > 25 µM
